In the test the target is D(2) dopamine receptor (Homo sapiens, UniProt P14416). As to the kind of experiment: Displacement of [3H]spiperone from human D2 receptor transfected in HEK cells. It counts as cell-based, HEK293. A general note: Loss of bound radioactivity is the signal in a displacement assay; it reports binding, not function.

Peptide text beside a SMILES is read from it. * marks the point of attachment. X1 = C=CCN1CCC[C@H]1CNC(=O)c1cc(CCCSC2CC(=O)N(CCCCCC(=O)*)C2=O)cc(OC)c1OC Bounds are passed on as bounds.

D(2) dopamine receptor, sequence (P14416 whole entry): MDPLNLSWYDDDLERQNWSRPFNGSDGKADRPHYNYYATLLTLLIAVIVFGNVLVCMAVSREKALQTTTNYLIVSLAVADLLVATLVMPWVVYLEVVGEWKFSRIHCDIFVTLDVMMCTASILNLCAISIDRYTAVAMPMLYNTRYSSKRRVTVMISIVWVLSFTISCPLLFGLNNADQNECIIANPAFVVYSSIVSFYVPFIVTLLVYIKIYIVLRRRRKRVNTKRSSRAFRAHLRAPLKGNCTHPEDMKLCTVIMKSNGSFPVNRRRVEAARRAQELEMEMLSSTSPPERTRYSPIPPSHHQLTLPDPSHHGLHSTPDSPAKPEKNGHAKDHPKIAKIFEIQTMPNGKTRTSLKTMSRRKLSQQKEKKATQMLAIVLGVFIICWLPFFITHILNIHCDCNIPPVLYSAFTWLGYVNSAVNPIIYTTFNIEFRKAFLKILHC

As usually defined, the Ki is a measure of affinity in units of concentration, obtained from inhibition or displacement. Read a high Ki as lower affinity. As to `C=CCN1CCC[C@H]1CNC(=O)c1cc(CCCSC2CC(=O)N(CCCCCC(=O)NCC(=O)N[C@@H](CCCNC(=N)N)C(=O)N[C@@H](CCCCN)C(=O)N[C@@H](CCCCN)C(=O)N[C@@H](CCCNC(=N)N)C(=O)N[C@@H](CCCNC(=N)N)C(=O)N[C@@H](CCC(N)=O)C(=O)N[C@@H](CCCNC(=N)N)C(=O)N[C@@H](CCCNC(=N)N)C(=O)N[C@@H](CCCNC(=N)N)C(=O)N3CCC[C@H]3C(=O)N3CCC[C@H]3C(=O)N[C@@H](CCC(N)=O)C(=O)O)C2=O)cc(OC)c1OC` (some centres undefined), the Ki was 0.0215 µM.

For the compound `C=CCN1CCC[C@H]1CNC(=O)c1cc(CCCSC2CC(=O)N(CCCCCC(=O)N[C@@H](CCCNC(=N)N)C(=O)N[C@@H](CCCCN)C(=O)N[C@@H](CCCCN)C(=O)N[C@@H](CCCNC(=N)N)C(=O)N[C@@H](CCCNC(=N)N)C(=O)N[C@@H](CCC(N)=O)C(=O)N[C@@H](CCCNC(=N)N)C(=O)N[C@@H](CCCNC(=N)N)C(=O)N[C@@H](CCCNC(=N)N)C(=O)O)C2=O)cc(OC)c1OC` (some centres undefined), the inhibition constant (Ki) is 0.00969 µM.

Regarding `C=CCN1CCC[C@H]1CNC(=O)c1cc(CCCSC2CC(=O)N(CCCCCC(=O)N[C@@H](Cc3cnc[nH]3)C(=O)N[C@@H](C)C(=O)N[C@H](C(=O)N[C@@H](Cc3ccc(O)cc3)C(=O)N3CCC[C@H]3C(=O)N[C@@H](CCCNC(=N)N)C(=O)N[C@@H](Cc3cnc[nH]3)C(=O)O)[C@@H](C)CC)C2=O)cc(OC)c1OC` (some centres undefined), the inhibition constant (Ki) was determined as 0.0103 µM.

For `C=CCN1CCC[C@H]1CNC(=O)c1cc(CCCSC2CC(=O)N(CCCCCC(=O)N[C@@H](CCCNC(=N)N)C(=O)N[C@@H](CCC(N)=O)C(=O)N[C@H](C(=O)N[C@@H](CCCCN)C(=O)N[C@H](C(=O)N[C@@H](Cc3c[nH]c4ccccc34)C(=O)N[C@@H](Cc3ccccc3)C(=O)N[C@@H](CCC(N)=O)C(=O)N[C@@H](CC(N)=O)C(=O)N[C@@H](CCCNC(=N)N)C(=O)N[C@@H](CCCNC(=N)N)C(=O)N[C@@H](CCSC)C(=O)N[C@@H](CCCCN)C(=O)N[C@@H](Cc3c[nH]c4ccccc34)C(=O)N[C@@H](CCCCN)C(=O)N[C@@H](CCCCN)C(=O)O)[C@@H](C)CC)[C@@H](C)CC)C2=O)cc(OC)c1OC` (some centres undefined), the inhibition constant Ki came out at 0.00814 µM.

On to `C=CCN1CCC[C@H]1CNC(=O)c1cc(CCCSC2CC(=O)N(CCCCCC(=O)NCCCC(=O)N[C@@H](Cc3cnc[nH]3)C(=O)N[C@@H](C)C(=O)N[C@H](C(=O)N[C@@H](Cc3ccc(O)cc3)C(=O)N3CCC[C@H]3C(=O)N[C@@H](CCCNC(=N)N)C(=O)N[C@@H](Cc3cnc[nH]3)C(=O)O)[C@@H](C)CC)C2=O)cc(OC)c1OC` (some centres undefined), for which the affinity, expressed as Ki, was 0.0284 µM.

Consider `C=CCN1CCC[C@H]1CNC(=O)c1cc(CCCSC2CC(=O)N(CCCCCC(=O)NCCOCCOCC(=O)N[C@@H](Cc3cnc[nH]3)C(=O)N[C@@H](C)C(=O)N[C@H](C(=O)N[C@@H](Cc3ccc(O)cc3)C(=O)N3CCC[C@H]3C(=O)N[C@@H](CCCNC(=N)N)C(=O)N[C@@H](Cc3cnc[nH]3)C(=O)O)[C@@H](C)CC)C2=O)cc(OC)c1OC` (some centres undefined), for which the affinity, expressed as Ki, was 0.0303 µM.

In the case of `C=CCN1CCC[C@H]1CNC(=O)c1cc(CCCSC2CC(=O)N(CCCCCC(=O)NCCOCCOCCOCCOCCOCCOCCC(=O)N[C@@H](Cc3cnc[nH]3)C(=O)N[C@@H](C)C(=O)N[C@H](C(=O)N[C@@H](Cc3ccc(O)cc3)C(=O)N3CCC[C@H]3C(=O)N[C@@H](CCCNC(=N)N)C(=O)N[C@@H](Cc3cnc[nH]3)C(=O)O)[C@@H](C)CC)C2=O)cc(OC)c1OC` (some centres undefined), the affinity, expressed as Ki, was 0.0274 µM.

Take `C=CCN1CCC[C@H]1CNC(=O)c1cc(CCCSC2CC(=O)N(CCCCCC(=O)NCCOCCOCCOCCOCCOCCOCCOCCOCCC(=O)N[C@@H](Cc3cnc[nH]3)C(=O)N[C@@H](C)C(=O)N[C@H](C(=O)N[C@@H](Cc3ccc(O)cc3)C(=O)N3CCC[C@H]3C(=O)N[C@@H](CCCNC(=N)N)C(=O)N[C@@H](Cc3cnc[nH]3)C(=O)O)[C@@H](C)CC)C2=O)cc(OC)c1OC` (some centres undefined): the Ki is 0.0539 µM.

For `C=CCN1CCC[C@H]1CNC(=O)c1cc(CCCSC2CC(=O)N(CCCCCC(=O)NCCOCCOCCOCCOCCOCCOCCOCCOCCOCCOCCOCCOCCC(=O)N[C@@H](Cc3cnc[nH]3)C(=O)N[C@@H](C)C(=O)N[C@H](C(=O)N[C@@H](Cc3ccc(O)cc3)C(=O)N3CCC[C@H]3C(=O)N[C@@H](CCCNC(=N)N)C(=O)N[C@@H](Cc3cnc[nH]3)C(=O)O)[C@@H](C)CC)C2=O)cc(OC)c1OC` (some centres undefined), the affinity, expressed as Ki, was 0.0253 µM.

As to `C=CCN1CCC[C@H]1CNC(=O)c1cc(CCCSC2CC(=O)N(CCCCCC(=O)NCCOCCOCCOCCOCCC(=O)N[C@H](C(=O)N[C@@H](Cc3ccccc3)C(=O)N[C@@H](Cc3ccccc3)C(=O)N[C@@H](Cc3ccc(O)cc3)C(=O)NCC(=O)NCC(=O)N[C@@H](CO)C(=O)N[C@@H](CCCNC(=N)N)C(=O)NCC(=O)N[C@@H](CCCCNC(=O)CN3CCN(CC(=O)O)CCN(CC(=O)O)CCN(CC(=O)O)CC3)C(=O)N[C@@H](CCCNC(=N)N)C(=O)N[C@@H](CC(N)=O)C(=O)N[C@@H](CC(N)=O)C(=O)N[C@@H](Cc3ccccc3)C(=O)N[C@@H](CCCCN)C(=O)N[C@H](C(=O)N[C@@H](CCC(=O)O)C(=O)N[C@@H](CCC(=O)O)C(=O)N[C@@H](Cc3ccc(O)cc3)C(=O)O)[C@@H](C)O)[C@@H](C)O)C2=O)cc(OC)c1OC` (some centres undefined), the inhibitory constant (Ki) is 0.0261 µM.

For the compound `C=CCN1CCC[C@H]1CNC(=O)c1cc(CCCSC2CC(=O)N(CCCCCC(=O)NCCOCCOCCOCCOCCOCCOCCC(=O)N[C@H](C(=O)N[C@@H](Cc3ccccc3)C(=O)N[C@@H](Cc3ccccc3)C(=O)N[C@@H](Cc3ccc(O)cc3)C(=O)NCC(=O)NCC(=O)N[C@@H](CO)C(=O)N[C@@H](CCCNC(=N)N)C(=O)NCC(=O)N[C@@H](CCCCNC(=O)CN3CCN(CC(=O)O)CCN(CC(=O)O)CCN(CC(=O)O)CC3)C(=O)N[C@@H](CCCNC(=N)N)C(=O)N[C@@H](CC(N)=O)C(=O)N[C@@H](CC(N)=O)C(=O)N[C@@H](Cc3ccccc3)C(=O)N[C@@H](CCCCN)C(=O)N[C@H](C(=O)N[C@@H](CCC(=O)O)C(=O)N[C@@H](CCC(=O)O)C(=O)N[C@@H](Cc3ccc(O)cc3)C(=O)O)[C@@H](C)O)[C@@H](C)O)C2=O)cc(OC)c1OC` (some centres undefined), the inhibition constant Ki was 0.0358 µM.

Consider `C=CCN1CCC[C@H]1CNC(=O)c1cc(CCCSC2CC(=O)N(CCCCCC(=O)NCCOCCOCCOCCOCCOCCOCCOCCOCCC(=O)N[C@H](C(=O)N[C@@H](Cc3ccccc3)C(=O)N[C@@H](Cc3ccccc3)C(=O)N[C@@H](Cc3ccc(O)cc3)C(=O)NCC(=O)NCC(=O)N[C@@H](CO)C(=O)N[C@@H](CCCNC(=N)N)C(=O)NCC(=O)N[C@@H](CCCCNC(=O)CN3CCN(CC(=O)O)CCN(CC(=O)O)CCN(CC(=O)O)CC3)C(=O)N[C@@H](CCCNC(=N)N)C(=O)N[C@@H](CC(N)=O)C(=O)N[C@@H](CC(N)=O)C(=O)N[C@@H](Cc3ccccc3)C(=O)N[C@@H](CCCCN)C(=O)N[C@H](C(=O)N[C@@H](CCC(=O)O)C(=O)N[C@@H](CCC(=O)O)C(=O)N[C@@H](Cc3ccc(O)cc3)C(=O)O)[C@@H](C)O)[C@@H](C)O)C2=O)cc(OC)c1OC` (some centres undefined), for which the Ki is 0.0428 µM.

`C=CCN1CCC[C@H]1CNC(=O)c1cc(CCCSC2CC(=O)N(CCCCCC(=O)N[C@H](C(=O)N[C@@H](Cc3ccccc3)C(=O)N[C@@H](Cc3ccccc3)C(=O)N[C@@H](Cc3ccc(O)cc3)C(=O)NCC(=O)NCC(=O)N[C@@H](CO)C(=O)N[C@@H](CCCNC(=N)N)C(=O)NCC(=O)N[C@@H](CCCCNC(=O)CN3CCN(CC(=O)O)CCN(CC(=O)O)CCN(CC(=O)O)CC3)C(=O)N[C@@H](CCCNC(=N)N)C(=O)N[C@@H](CC(N)=O)C(=O)N[C@@H](CC(N)=O)C(=O)N[C@@H](Cc3ccccc3)C(=O)N[C@@H](CCCC[n+]3c(C)cc(/C=C/C=C/c4ccc(N(C)C)cc4)cc3C)C(=O)N[C@H](C(=O)N[C@@H](CCC(=O)O)C(=O)N[C@@H](CCC(=O)O)C(=O)N[C@@H](Cc3ccc(O)cc3)C(=O)O)[C@@H](C)O)[C@@H](C)O)C2=O)cc(OC)c1OC` (some centres undefined) gave an inhibition constant Ki of 0.0642 µM.

Compound `C=CCN1CCC[C@H]1CNC(=O)c1cc(CCCSC2CC(=O)N(CCCCCC(=O)NCCOCCOCCOCCOCCC(N)=O)C2=O)cc(OC)c1OC` (some centres undefined) returned a Ki of 0.00731 µM.

In turn, `C=CCN1CCC[C@H]1CNC(=O)c1cc(CCCF)ccc1OC` displayed an inhibition constant (Ki) of 0.00063 µM.

Regarding `C=CCN1CCC[C@H]1CNC(=O)c1cc(CCCSC2CC(=O)N(CCCCCC(=O)NCC(=O)N[C@@H](Cc3c[nH]c4ccccc34)C(=O)N[C@H](C(=O)N[C@@H](CC(C)C)C(=O)N[C@@H](CC(=O)O)C(=O)N[C@@H](CO)C(=O)N[C@@H](C)C(=O)NCC(=O)N[C@@H](Cc3ccc(O)cc3)C(=O)N[C@@H](CC(C)C)C(=O)N[C@@H](CC(C)C)C(=O)NCC(=O)N[C@@H](CCCCN)C(=O)N[C@H](C(=O)N[C@@H](CC(=O)O)C(=O)N[C@@H](CC(C)C)C(=O)N[C@@H](CCCCN)C(=O)N[C@@H](C)C(=O)N[C@@H](CC(C)C)C(=O)N[C@@H](C)C(=O)N[C@@H](C)C(=O)N[C@@H](CC(C)C)C(=O)N[C@@H](C)C(=O)N[C@@H](CCCCN)C(=O)N[C@@H](CCCCN)C(=O)N[C@H](C(=O)N[C@@H](CC(C)C)C(=O)O)[C@@H](C)CC)[C@@H](C)CC)[C@@H](C)O)C2=O)cc(OC)c1OC` (some centres undefined) (X1-GWTLDSAGYLLGKIDLKALAALAKKIL-OH), the affinity corresponds to a Ki of 0.0123 µM.

In the case of `C=CCN1CCC[C@H]1CNC(=O)c1cc(CCCSC2CC(=O)N(CCCCCC(=O)N[C@H](C(=O)N[C@@H](Cc3cnc[nH]3)C(=O)N[C@@H](CCCNC(=N)N)C(=O)N3CCC[C@H]3C(=O)N3CCC[C@H]3C(=O)N[C@@H](CCSC)C(=O)N[C@@H](Cc3c[nH]c4ccccc34)C(=O)N[C@@H](CO)C(=O)N3CCC[C@H]3C(=O)N[C@H](C(=O)N[C@@H](Cc3c[nH]c4ccccc34)C(=O)N3CCC[C@H]3C(=O)O)C(C)C)[C@@H](C)O)C2=O)cc(OC)c1OC` (some centres undefined) (X1-THRPPMWSPVWP-OH), the Ki came to 0.0273 µM.

On to `C=CCN1CCC[C@H]1CNC(=O)c1cc(CCCSC2CC(=O)N(CCCCCC(=O)N[C@H](C(=O)N[C@@H](CCC(N)=O)C(=O)N[C@@H](CCCNC(=N)N)C(=O)N[C@@H](CCCCN)C(=O)N[C@@H](CCCNC(=N)N)C(=O)N[C@@H](CCC(N)=O)C(=O)N[C@@H](CCCCN)C(=O)N[C@@H](CC(C)C)C(=O)N[C@@H](CCSC)C(=O)N3CCC[C@H]3C(=O)O)C(C)C)C2=O)cc(OC)c1OC` (some centres undefined) (X1-VQRKRQKLMP-OH), for which the affinity corresponds to a Ki of 0.013 µM.

H-VQRKRQKLMP-OH gave an inhibition constant Ki of over 1 µM.

Values taken from ChEMBL document CHEMBL3259715, “Shuttle-cargo fusion molecules of transport peptides and the hD2/3 receptor antagonist fallypride: a feasible approach to preserve ligand-receptor binding?” (J Med Chem, 2014).
